Reference: article PMC12292992, “Betulinic Acid ω-Triphenylphosphonium Alkyl Esters: Antiproliferative Activities and In Silico Pharmacokinetic Profiles” (Biomedicines, 2025)

Key:
Format in all cases: cell-based, human
HCT-15 cells [1] = experiment: MTT cell viability assay, colorectal carcinoma; settings: for IC50: Homo sapiens
Procedure: Human cell lines were obtained from the American Type Culture Collection (ATCC, Manassas, VA, USA). Normal lung MRC-5 fibroblasts (ATCC® CCL-171™), SK-MES-1 lung cancer cells (ATCC® HTB-58™), and J82 bladder carcinoma cells (ATCC® HTB-1™) were grown as monolayers in Eagle’s minimum essential medium (MEM) with Earle’s salts, 2 mM L-glutamine, and 1.5 g/L sodium bicarbonate. Gastric epithelial AGS cells (ATCC® CRL-1739™) were grown as monolayers in Ham’s F-12 medium containing 1 mM L-glutamine and 1.5 g/L sodium bicarbonate. Promyelocytic leukemia HL-60 (ATCC® CCL-240™), colorectal adenocarcinoma HCT-15 (ATCC® CCL-225™), metastatic colorectal COLO205 (ATCC® CCL-222™), and breast cancer AU565 (ATCC® CRL-2351™, ER^−-HER2/neu^+) cells were grown in suspension in an RPMI-1640 medium containing 1 mM sodium pyruvate and 2.0 g/L sodium bicarbonate. Human breast cancer MCF-7 (ATCC® HTB-22™, ER^+-HER2/neu^−) and MDA-MB-231 (ATCC® HTB-26™, ER^−-HER2/neu^−) cells were grown as monolayers in DMEM medium. All media were supplemented with 10% heat-inactivated fetal bovine serum (HI-FBS), 100 IU/mL penicillin G, and 100 µg/mL streptomycin. Cells were maintained at 37 °C in a humidified incubator with 5% CO2.
MRC-5, SK-MES-1, J82, and AGS cells were seeded at a density of 5 × 10^4 cells/mL in 96-well plates. COLO205, HCT-15, MCF-7, MDA-MB-231, and AU565 cells were seeded at 1 × 10^5 cells/mL, while HL-60 cells were plated at 3 × 10^5 cells/mL. A volume of 100 µL of the cell suspension was added to each well. After 24 h, the compounds were added in increasing concentrations (ranging from 0 to 100 µM), and cells were incubated for 24, 48, or 72 h. The compounds were dissolved in DMSO and diluted in complete medium to a final concentration of 0.5% DMSO. Cells treated with 0.5% DMSO in complete medium were used as viability controls (100%). Etoposide (98% purity, Sigma-Aldrich, St. Louis, MO, USA) was used as the reference compound. Each concentration was tested in quadruplicate, and each experiment was performed twice using independent cell preparations. At the end of the incubation period, cell viability was determined using the MTT reduction assay. The results were transformed into percentages relative to controls, and IC50 values were obtained graphically from the dose–response curves. Results are presented as IC50 values ± standard deviation (SD).

COLO205 cells = experiment: Annexin V/propidium iodide double staining, flow cytometry; settings: 24 h
Procedure: (§1) The type of cell death induced by the BA-C4-TPP^+Br^− was assessed by flow cytometry, using Annexin V/propidium iodide (AV/PI) double staining, following the instructions of the Annexin V-FITC Apoptosis Detection Kit (Abcam, Cambridge, UK). Cells were cultured at 5 × 10^4 cells/well in 24-well plates and incubated overnight. Afterwards, cells were treated with increasing concentrations of BA-C4-TPP^+Br^− (1, 2.5, 5, or 10 µM for COLO205 and HCT-15 cells) for 24 h. Finally, cells were trypsinized, resuspended in annexin V binding buffer 1X, adding AV and PI, and incubated for 5 min at room temperature, protected from light. Control corresponds to cells incubated with DMSO 1%. Fluorescence of each probe was assessed by flow cytometry (FACSAria®III, BD Biosciences, Franklin Lakes, NJ, USA). Wavelengths used were 488Ex/530Em nm for AV-FITC and 488Ex/575Em nm for PI. Results are expressed as total apoptotic cells (percentage of AV+/PI− and AV+/PI+ cells), necrotic cells (percentage of AV-/PI+ cells), and live cells (percentage of AV-/PI− cells). Cyflogic software (non-commercial 6th version, CyFlo Ltd., Turku, Finland) was used for data processing.

HCT-15 cells [2] = experiment: as above; settings: 24 h
Procedure: as §1

With `C=C(C)[C@@H]1CC[C@]2(C(=O)OCCCC[P+](c3ccccc3)(c3ccccc3)c3ccccc3)CC[C@]3(C)[C@H](CC[C@@H]4[C@@]5(C)CC[C@H](O)C(C)(C)[C@@H]5CC[C@]43C)[C@@H]12` [BA-C4-TPP^+Br^−, 4-Triphenylphosphoniobutyl 3β-hydroxylup-20(29)-en-28-oate bromide] the “increase in potency compared to non-modified BA scaffold” value (HCT-15 cells [1]; HCT-15 cells at 72 h) was “approximately 7 fold”, the IC50 (HCT-15 cells [1]; HCT-15, 24 h) was 1460 ± 170 nM and the IC50 (HCT-15 cells [1]; HCT-15, 48 h) was 610 ± 160 nM. The IC50 (HCT-15 cells [1]; HCT-15, 72 h) was 520 ± 120 nM, the apoptosis induction (COLO205 cells; COLO205, 1 μM) was roughly 14% and the apoptosis induction (COLO205 cells; COLO205, 2.5 μM) was roughly 34%. For the same compound, the necrotic cell death (COLO205 cells; COLO205, 5 μM) was 15%, the necrotic cell death (COLO205 cells; COLO205, initial concentration (1 μM)) was 5% and the apoptosis induction (HCT-15 cells [2]; HCT-15, 2.5 μM) was 12%. For the same compound, the necrosis induction (HCT-15 cells [2]; HCT-15, 2.5 μM) was 7% and the necrotic cell death (HCT-15 cells [2]; HCT-15, 10 μM) was roughly 30%.
